Reference: patent US12059422B2 (MEI Pharma, Inc., priority 2011, dated 2024)
pIC50: −log10 of the molar value.

Assays:
PI3Kα = PI3Kα (Homo sapiens, UniProt P42336); test: ELISA assay for PI3Kα: in-cell ELISA, phosphorylation of AKT (Thr308) in MDA-MB-453 cells; format: cell-based; details: cellular, pAKT (Thr308), IGF-1 stimulation, read-out: IC50 p110α
Experimental: PI3K alpha (PI3Kα) activity was determined by measuring the phosphorylation of AKT (Thr308) using an in-cell ELISA assay. MDA-MB-453 (breast carcinoma) cells were obtained from ATCC (ATCC #HTB-131). Growth medium was DMEM (CellGro #CV-10-013-CV) supplemented with 10% fetal bovine serum, 100 IU/mL penicillin, 100 μg/mL streptomycin, and 1×MEM non-essential amino acids. Phosphate buffered saline (PBS) contained 2.7 M NaCl, 54 mM KCl, 86 mM […] (dibasic, anhydrous), and 28 mM […] (monobasic, anhydrous) at pH 7.2. Stimulation mixture (10×) was 1000 ng/mL LONG® R^3 human IGF-1 (Sigma #I1271) diluted in serum-free DMEM medium (CellGro #CV-10-013-CV). Compounds for testing were dissolved and serially diluted in 100% DMSO (total of 10 concentrations), then diluted in serum-free DMEM to 2× final assay concentration. Fixative solution (2×) was 8% formaldehyde (Amresco #M134) diluted in PBS. Permeabilization solution was PBS supplemented with 0.1% Triton X-100. Blocking buffer was obtained from LiCor (LiCor #927-40000). Wash buffer was PBS supplemented with 0.1% Tween-20. Primary antibody solution was rabbit anti-pAKT^T308 monoclonal antibody (Cell Signaling #2965) and mouse anti-total S6 (Santa Cruz #74459) diluted 1:500 and 1:2000, respectively, in the blocking buffer. Secondary antibody solution was IRDye 800CW-conjugated goat anti-rabbit IgG (LiCor #926-32211) and IRDye 680LT-conjugated goat anti-mouse IgG (LiCor #926-68020) diluted 1:1000 and 1:2000, respectively, in the blocking buffer.
MDA-MB-453 cells were subcultured in growth medium and seeded into flat, clear bottom, 96-well plates (Corning #3904) at 40000 cells/well, then incubated overnight in a 5% CO2 incubator at 37° C. Growth medium in plates was replaced with 100 μL/well serum-free DMEM and incubated overnight at 37° C. in a 5% CO2 incubator. Fresh serum-free DMEM (50 μL/well) was added to plates. Compound treatment was performed by adding 50 μL/well of 2× compound mixture to plates and incubating for 1 hr at 37° C. and 5% CO2, after which 11 μL/well of 10× stimulation mixture was added and plates were incubated for 10 min at 37° C. and 5% CO2. Fixation was performed by adding 110 μL/well of 2× fixative solution to the plates and incubating for 20 min at room temperature. Permeabilization was performed by replacing fixation solution with 150 μL/well permeabilization solution and incubating for 10 min at room temperature. Permeabilization was repeated (for a total of 2 times). Permeabilization solution was replaced with 100 μL/well blocking buffer and plates were incubated for 1 hour at room temperature, after which 100 μL/well of primary antibody solution was added and plates were incubated overnight at 4° C. Plates were washed with wash buffer, after which 100 μL/well of secondary antibody solution was added to the plates and incubated in the dark for 1 hr at room temperature. Plates were washed with wash buffer, followed by a wash with PBS. After completely removing PBS, plates were scanned on the Licor Odyssey Imager. Images were quantified using Licor Odyssey application software. IC50 values were determined by curve fitting using a Collaborative Drug Discovery database (www.collaborativedrug.com).

PI3Kγ = molecular target: T1, PI3Kγ (Mus musculus, UniProt Q9JHG7); test: ELISA assay for PI3Kγ: in-cell ELISA, phosphorylation of AKT (Ser473) in RAW 264.7 cells; format: cell-based; details: cellular, pAKT (Ser473), C5a stimulation, read-out: IC50 p110γ
T1 construct: endogenous in cells; host or cells: RAW 264.7 (ATCC #TIB-71)
Experimental: PI3K gamma (PI3Kγ) activity was determined by measuring the phosphorylation of AKT (Ser473) using an in-cell ELISA assay. RAW 264.7 (mouse macrophage) cells were obtained from ATCC (ATCC #TIB-71). Growth medium was DMEM (CellGro #CV-10-013-CV) supplemented with 10% fetal bovine serum, 100 IU/mL penicillin, 100 μg/mL streptomycin, and 1×MEM non-essential amino acids. Phosphate buffered saline (PBS) contained 2.7 M NaCl, 54 mM KCl, 86 mM […] (dibasic, anhydrous), and 28 mM […] (monobasic, anhydrous) at pH 7.2. Stimulation mixture (10×) was 500 ng/mL recombinant human complement component C5a (R&D systems #2037-C5-025) diluted in serum-free DMEM medium (CellGro #CV-10-013-CV). Compounds for testing were dissolved and serially diluted in 100% DMSO (total of 10 concentrations), then diluted in serum-free DMEM to 2× final assay concentration. Fixative solution (2×) was 8% formaldehyde (Amresco #M134) diluted in PBS. Permeabilization solution was PBS supplemented with 0.10% Triton X-100. Blocking buffer was obtained from LiCor (LiCor #927-40000). Wash buffer was PBS supplemented with 0.1% Tween-20. Primary antibody solution was rabbit anti-pAKT^S473 monoclonal antibody (Cell Signaling #4060) and mouse anti-total S6 (Santa Cruz #74459) diluted 1:500 and 1:2000, respectively, in the blocking buffer. Secondary antibody solution was IRDye 800CW-conjugated goat anti-rabbit IgG (LiCor #926-32211) and IRDye 680LT-conjugated goat anti-mouse IgG (LiCor #926-68020) diluted 1:1000 and 1:2000, respectively, in the blocking buffer.
RAW 264.7 cells were subcultured in growth medium and seeded into flat, clear bottom, 96-well plates (Corning #3904) at 70000 cells/well, then incubated overnight in a 37° C., 5% CO2 incubator. Growth medium in plates was replaced with 100 μL/well serum-free DMEM and incubated overnight in a 37° C., 5% CO2 incubator. Fresh serum-free DMEM (50 μL/well) was added to plates. Compound treatment was performed by adding 50 μL/well of 2× compound mixture to plates and incubating for 2 hrs at 37° C., 5% CO2, after which 11 μL/well of 10× stimulation mixture was added and plates were incubated for 3 min at 37° C., 5% CO2. Fixation was performed by adding 110 μL/well of 2× fixative solution to plates and incubating for 20 min at room temperature. Permeabilization was performed by replacing fixation solution with 150 μL/well permeabilization solution and incubating for 10 min at room temperature. Permeabilization was repeated (for a total of 2 times). Permeabilization solution was replaced with 100 μL/well blocking buffer and plates were incubated for 1 hr at room temperature, after which 100 μL/well of primary antibody solution was added and plates were incubated overnight at 4° C. Plates were washed with wash buffer, after which 100 μL/well of secondary antibody solution was added to the plates and incubated in the dark for 1 hr at room temperature. Plates were washed with wash buffer, followed by awash with PBS. After completely removing PBS, plates were scanned on the Licor Odyssey Imager. Images were quantified using Licor Odyssey application software. IC50 values were determined by curve fitting using a Collaborative Drug Discovery database (www.collaborativedrug.com).

Sequence of PI3Kα (P27986 2-724): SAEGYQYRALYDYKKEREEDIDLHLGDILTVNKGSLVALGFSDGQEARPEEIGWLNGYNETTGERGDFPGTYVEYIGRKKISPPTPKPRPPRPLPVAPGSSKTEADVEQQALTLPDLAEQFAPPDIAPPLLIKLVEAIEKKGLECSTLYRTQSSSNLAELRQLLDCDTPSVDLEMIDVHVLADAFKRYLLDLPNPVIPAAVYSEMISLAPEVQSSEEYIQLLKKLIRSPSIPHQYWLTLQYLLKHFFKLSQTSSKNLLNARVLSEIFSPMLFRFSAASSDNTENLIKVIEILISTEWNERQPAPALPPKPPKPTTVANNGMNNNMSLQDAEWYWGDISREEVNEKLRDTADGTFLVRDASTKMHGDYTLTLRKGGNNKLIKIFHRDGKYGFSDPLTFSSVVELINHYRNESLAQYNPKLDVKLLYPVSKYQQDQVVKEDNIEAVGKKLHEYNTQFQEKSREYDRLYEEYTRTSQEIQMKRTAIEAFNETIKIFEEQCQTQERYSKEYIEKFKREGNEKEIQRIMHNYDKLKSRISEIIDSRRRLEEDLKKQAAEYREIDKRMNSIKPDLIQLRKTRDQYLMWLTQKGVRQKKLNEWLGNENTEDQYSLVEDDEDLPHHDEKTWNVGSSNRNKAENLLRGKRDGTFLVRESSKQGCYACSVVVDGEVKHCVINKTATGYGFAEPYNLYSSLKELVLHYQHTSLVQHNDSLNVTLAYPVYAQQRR
Sequence of PI3Kα (P42336 whole entry): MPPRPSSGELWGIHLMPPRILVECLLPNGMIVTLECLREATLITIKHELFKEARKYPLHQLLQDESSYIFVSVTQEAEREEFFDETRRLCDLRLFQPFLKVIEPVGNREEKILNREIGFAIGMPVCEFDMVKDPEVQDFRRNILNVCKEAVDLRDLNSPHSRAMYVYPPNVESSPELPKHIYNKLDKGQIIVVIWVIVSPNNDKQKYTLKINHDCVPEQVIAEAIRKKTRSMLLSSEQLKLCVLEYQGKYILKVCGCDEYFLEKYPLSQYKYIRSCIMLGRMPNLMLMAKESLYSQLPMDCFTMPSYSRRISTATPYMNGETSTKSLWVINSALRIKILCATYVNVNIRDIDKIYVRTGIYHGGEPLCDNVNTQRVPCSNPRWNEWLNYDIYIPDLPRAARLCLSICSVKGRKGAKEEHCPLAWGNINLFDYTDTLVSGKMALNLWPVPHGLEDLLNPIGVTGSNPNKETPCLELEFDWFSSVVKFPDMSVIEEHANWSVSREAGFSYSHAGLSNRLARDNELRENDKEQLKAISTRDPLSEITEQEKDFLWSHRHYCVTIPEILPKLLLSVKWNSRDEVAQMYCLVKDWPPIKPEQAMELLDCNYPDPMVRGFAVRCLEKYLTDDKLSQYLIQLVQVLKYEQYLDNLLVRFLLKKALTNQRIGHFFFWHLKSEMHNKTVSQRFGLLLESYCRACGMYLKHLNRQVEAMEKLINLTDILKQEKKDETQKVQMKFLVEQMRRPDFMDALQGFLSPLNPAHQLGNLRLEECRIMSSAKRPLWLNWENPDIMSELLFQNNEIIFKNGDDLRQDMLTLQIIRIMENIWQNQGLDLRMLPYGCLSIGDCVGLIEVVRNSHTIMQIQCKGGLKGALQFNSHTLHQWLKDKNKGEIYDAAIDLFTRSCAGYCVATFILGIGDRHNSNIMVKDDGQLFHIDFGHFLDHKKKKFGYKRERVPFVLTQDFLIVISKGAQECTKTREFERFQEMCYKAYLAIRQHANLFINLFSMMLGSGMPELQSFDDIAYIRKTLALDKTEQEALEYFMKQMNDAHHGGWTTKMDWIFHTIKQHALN
T1 sequence (Q9JHG7 whole entry): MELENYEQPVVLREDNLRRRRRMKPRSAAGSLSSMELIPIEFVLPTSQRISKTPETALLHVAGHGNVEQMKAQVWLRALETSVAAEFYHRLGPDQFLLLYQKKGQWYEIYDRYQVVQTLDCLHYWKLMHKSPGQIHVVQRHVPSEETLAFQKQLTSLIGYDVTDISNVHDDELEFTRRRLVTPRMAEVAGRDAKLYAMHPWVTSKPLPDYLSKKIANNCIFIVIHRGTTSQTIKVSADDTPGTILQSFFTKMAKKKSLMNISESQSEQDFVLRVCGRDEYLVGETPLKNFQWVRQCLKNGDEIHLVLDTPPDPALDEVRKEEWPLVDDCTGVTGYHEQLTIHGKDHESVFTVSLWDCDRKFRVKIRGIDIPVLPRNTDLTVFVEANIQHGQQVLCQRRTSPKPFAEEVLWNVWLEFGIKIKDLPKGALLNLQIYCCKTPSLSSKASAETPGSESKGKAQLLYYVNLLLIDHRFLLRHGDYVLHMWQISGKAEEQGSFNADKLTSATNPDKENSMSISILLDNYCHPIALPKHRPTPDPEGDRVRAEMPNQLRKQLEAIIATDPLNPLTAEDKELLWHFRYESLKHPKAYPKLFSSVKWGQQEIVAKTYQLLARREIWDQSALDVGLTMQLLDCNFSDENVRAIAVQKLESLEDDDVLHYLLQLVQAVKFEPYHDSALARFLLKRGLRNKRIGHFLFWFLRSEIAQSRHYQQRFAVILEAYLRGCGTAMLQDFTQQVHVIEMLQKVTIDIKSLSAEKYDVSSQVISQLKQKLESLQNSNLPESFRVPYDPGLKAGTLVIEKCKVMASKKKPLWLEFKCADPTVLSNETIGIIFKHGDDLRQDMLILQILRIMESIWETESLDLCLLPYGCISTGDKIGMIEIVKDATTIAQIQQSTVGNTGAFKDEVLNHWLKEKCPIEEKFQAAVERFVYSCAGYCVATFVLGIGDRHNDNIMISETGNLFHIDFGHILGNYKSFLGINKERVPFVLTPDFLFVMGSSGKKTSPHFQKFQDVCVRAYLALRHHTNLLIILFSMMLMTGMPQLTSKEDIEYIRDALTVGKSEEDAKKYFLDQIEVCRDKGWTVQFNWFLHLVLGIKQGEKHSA

Row | Compound | pIC50 (PI3Kα) | pIC50 (PI3Kγ)
1 | CC(C)(Cc1ccccc1)Nc1nc(N2CCOCC2)nc(-n2c(C(F)F)nc3ccccc32)n1 [Compound A14, 4-(2-(difluoromethyl)-1H-benzo[d]imidazol-1-yl)-N-(2-methyl-1-phenylpropan-2-yl)-6-morpholino-1,3,5-triazin-2-amine] | < 6.30 | 6.30 to 6.70
2 | CC(C)(Cc1ccccc1F)Nc1nc(N2CCOCC2)nc(-n2c(C(F)F)nc3ccccc32)n1 [Compound A15, 4-(2-(difluoromethyl)-1H-benzo[d]imidazol-1-yl)-N-(1-(2-fluorophenyl)-2-methylpropan-2-yl)-6-morpholino-1,3,5-triazin-2-amine] | < 6.30 | 6.30 to 6.70
3 | CC(C)(Cc1ccccc1Cl)Nc1nc(N2CCOCC2)nc(-n2c(C(F)F)nc3ccccc32)n1 [Compound A16, 4-(2-(difluoromethyl)-1H-benzo[d]imidazol-1-yl)-N-(1-(2-chlorophenyl)-2-methylpropan-2-yl)-6-morpholino-1,3,5-triazin-2-amine] | < 6.30 | < 6.30
4 | Cc1ccccc1CC(C)(C)Nc1nc(N2CCOCC2)nc(-n2c(C(F)F)nc3ccccc32)n1 [Compound A18, 4-(2-(difluoromethyl)-1H-benzo[d]imidazol-1-yl)-N-(2-methyl-1-(o-tolyl)propan-2-yl)-6-morpholino-1,3,5-triazin-2-amine] | < 6.30 | 6.30 to 6.70
5 | COc1cccc(CC(C)(C)Nc2nc(N3CCOCC3)nc(-n3c(C(F)F)nc4ccccc43)n2)c1 [Compound A21, 4-(2-(difluoromethyl)-1H-benzo[d]imidazol-1-yl)-N-(1-(3-methoxyphenyl)-2-methylpropan-2-yl)-6-morpholino-1,3,5-triazin-2-amine] | < 6.30 | 6.30 to 6.70

More lines, now with the values ahead:

Row | pIC50 (PI3Kα) | pIC50 (PI3Kγ) | Compound
6 | < 6.30 | 6.30 to 6.70 | CC(C)(Cc1ccc(F)cc1)Nc1nc(N2CCOCC2)nc(-n2c(C(F)F)nc3ccccc32)n1 [Compound A22, 4-(2-(difluoromethyl)-1H-benzo[d]imidazol-1-yl)-N-(1-(4-fluorophenyl)-2-methylpropan-2-yl)-6-morpholino-1,3,5-triazin-2-amine]
7 | < 6.30 | 6.30 to 6.70 | CN1CCC(c2ccccc2CC(C)(C)Nc2nc(N3CCOCC3)nc(-n3c(C(F)F)nc4ccccc43)n2)CC1 [Compound A35, 4-(2-(difluoromethyl)-1H-benzo[d]imidazol-1-yl)-N-(2-methyl-1-(2-(1-methylpiperidin-4-yl)phenyl)propan-2-yl)-6-morpholino-1,3,5-triazin-2-amine]
8 | < 6.30 | 6.70 to 7.00 | CC(C)(Cc1cccc(F)c1)Nc1nc(N2CCOCC2)nc(-n2c(C(F)F)nc3ccccc32)n1 [Compound A39, 4-(2-(difluoromethyl)-1H-benzo[d]imidazol-1-yl)-N-(1-(3-fluorophenyl)-2-methylpropan-2-yl)-6-morpholino-1,3,5-triazin-2-amine]
9 | < 6.30 | 6.30 to 6.70 | CC(C)(Cc1ccccc1-c1cccnc1)Nc1nc(N2CCOCC2)nc(-n2c(C(F)F)nc3ccccc32)n1 [Compound A40, 4-(2-(difluoromethyl)-1H-benzo[d]imidazol-1-yl)-N-(2-methyl-1-(2-(pyridin-3-yl)phenyl)propan-2-yl)-6-morpholino-1,3,5-triazin-2-amine]
10 | < 6.30 | < 6.30 | COc1cc(-c2ccccc2CC(C)(C)Nc2nc(N3CCOCC3)nc(-n3c(C(F)F)nc4ccccc43)n2)ccn1 [Compound A41, 4-(2-(difluoromethyl)-1H-benzo[d]imidazol-1-yl)-N-(1-(2-(2-methoxypyridin-4-yl)phenyl)-2-methylpropan-2-yl)-6-morpholino-1,3,5-triazin-2-amine]
11 | < 6.30 | 6.30 to 6.70 | Cc1cc(-c2ccccc2CC(C)(C)Nc2nc(N3CCOCC3)nc(-n3c(C(F)F)nc4ccccc43)n2)ccn1 [Compound A43, 4-(2-(difluoromethyl)-1H-benzo[d]imidazol-1-yl)-N-(2-methyl-1-(2-(2-methylpyridin-4-yl)phenyl)propan-2-yl)-6-morpholino-1,3,5-triazin-2-amine]
